This is an account of results in EPA's ToxValDB 9.5 (doi:10.2903/j.efsa.2013.3469).

In data set [1] the test system is Typhlodromus pyri. Particulars: not reported; mortality.
The subject of another data set is Daphnia magna. Particulars: chronic/long-term; duration: 21 days; reproduction.
For another data set, the system named is Anas platyrhynchos. The note with it: oral, mortality.
Another data set relates to Bibionidae. Particulars: chronic/long-term; duration: 28 days; development.
Another data set has as its system Tagia sp. The note with it: acute, duration: 14 days.
In the next data set the test system is Apis mellifera. Particulars: acute; oral; unspecified; mortality.
Another data set deals with Folsomia candida. Particulars: chronic/long-term; mortality.
In data set [2] the test system is Typhlodromus pyri. Description: LR50; higher = less toxic. The note with it: not reported; mortality.

Converted amounts (≈) assume the structure as drawn.

A word on the NOAEL: it is the highest tested level that showed no adverse finding.

`CC1(C)[C@H](C(=O)O[C@H](C#N)c2cccc(Oc3ccccc3)c2)[C@@H]1/C=C\C(=O)OC(C(F)(F)F)C(F)(F)F` [Acrinathrin]: the LC50 was 1.7 ng/mL (≈ 3.14 nM) in the data set with Pimephales promelas (acute, duration: 96 hours, mortality) and above 1000 mg/kg in the data set with Tagia sp. (mortality). For the same molecule, the NOEC with Pimephales promelas (chronic/long-term, duration: 28 days) was found to be 1.1e-05 mg/L; with Typhlodromus pyri [1], 0.00068 g/ha; with Daphnia magna, 3.2e-06 mg/L; in the data set on Anas platyrhynchos (short-term, feed) it was 173 mg/kg-day; in the data set on Bibionidae it was 3.1e-05 mg/L; in the data set on Colinus virginianus (reproduction developmental, reproduction), 19.9 mg/kg-day. The NOEC with Colinus virginianus (short-term, oral, diet, mortality) is 325 mg/kg-day; with Tagia sp. (biomass) it was 1.6 mg/kg; with Folsomia candida it was below 1 mg/kg. Also, the LD50 in the data set with Rattus norvegicus (acute, oral, mortality) was above 5000 mg/kg-day; in the data set with Anas platyrhynchos (acute, unspecified), above 2000 mg/kg-day; in the data set on Colinus virginianus (acute, oral, mortality) it was above 2250 mg/kg-day; in the data set with Apis mellifera it was 0.077 µg/piece. The NOAEL in the data set with Rattus norvegicus (acute, oral, neurology) is 1 mg/kg-day; with Rattus norvegicus (reproduction developmental, no effects), 9.4 mg/kg-day. The same molecule yielded an LR50 in the data set on Typhlodromus pyri [2] of 0.006 g/ha.
